Drawing on PubChem BioAssay (NCI), this text covers TGI and GI50 for eight compounds.

What all share (test): NCI tumour cell line growth inhibition, 48 h
The test system of test [1] is SNB-19 CNS.
The subject of test [2] is OVCAR-8 ovarian.
The test system of test [3] is SK-MEL-5 melanoma.
Test [4] concerns NCI-H460 lung.
Test [5] concerns SK-OV-3 ovarian.
For test [6], the system named is NCI-H23 lung.
Test [7] has as its system HCC-2998 colon.
Test [8] deals with MDA-MB-231 breast.
Test [9] deals with MOLT-4 leukemia.
Test [10] concerns SW-620 colon.

Several values for one entry are separate records, joined by “and”; a condition that tells them apart may be missing. Identical values can stand only once.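 Five compound concentrations were applied to cells in 96-well plates for 48 hours; endpoints were derived by simple linear interpolation of the resulting dose-response curve. The concentration for 50% growth inhibition is given as GI50. The concentration for full growth arrest is given as TGI.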

As for `C#Cc1cccc(N2C(=O)CCC2=O)c1`, the TGI in test [1] turned out to be 48 µM; in [2], 36.1 µM; in test [3] it was 37.1 µM; in test [4], 71.7 µM; in test [5], 43 µM; in [6], 24.5 µM. Besides, the TGI in test [7] worked out at 29.5 µM; in test [8], 44.6 µM; in test [9], 23 µM; in test [10] it was 19.2 µM.

On to `CC(C)CCC(=O)c1ccoc1`, for which the TGI in test [1], in test [2], in [3], in test [4], in test [5] and in test [6] was more than 100 µM in each case. The TGI in [7], in [8], in test [9] and in test [10] was more than 100 µM each time.

Regarding `CCN(Cc1cccc(F)c1)c1ccc(CO)c(Cl)c1`, the GI50 in test [1] is 21.8 µM; in test [2], 17.3 µM; in test [3] it was 3.86 µM; in test [4], 0.306 µM; in [5] it was 6.68 µM; in [6], 10.8 µM. The GI50 in test [7] is 10.7 µM; in [8], 19 µM; in test [9] it was 25.2 µM; in test [10], 0.808 µM. The TGI in test [1] was more than 92.6 µM; in test [2] it was more than 60.9 µM; in test [3], 20.4 µM; in test [4], 18 µM; in [5] it was 36.3 µM; in test [6], 74.4 µM. The TGI in [7] is 35.5 µM; in test [8], more than 55.3 µM; in [9], more than 74.5 µM; in test [10], more than 100 µM.

Take `CN(C)CCCOc1ccc(-c2ccc3ncc4c(c3c2)n(C2CCOCC2)c(=O)n4C)cn1`: the GI50 in test [1] was 4.71 µM; in test [2], 3.24 µM; in test [3], 1.48 µM; in test [4], 0.94 µM; in test [5] it was 0.514 µM; in test [6], 2.53 µM. Further, the GI50 is 2.51 µM in test [7], 1.31 µM in [8], 1.51 µM in [9] and 2.81 µM in test [10]. Moreover, the TGI was 18.7 µM in [1]; 17.2 µM in [2]; 7.47 µM in [3]; 15.5 µM in test [4]; 4.19 µM in test [5]; 22.1 µM in [6]. For the same compound, the TGI in test [7] came out at 15.6 µM; in test [8] it was 11.7 µM; in test [9], 14.4 µM; in [10] it was 21.1 µM.

With `CO[C@H]1/C=C/O[C@@]2(C)Oc3c(C)c(O)c4c(c3C2=O)C(=O)C(/C=N/N(c2ccccc2)c2ccccc2)=C(NC(=O)/C(C)=C\C=C\[C@H](C)[C@H](O)[C@@H](C)[C@@H](O)[C@@H](C)[C@H](OC(C)=O)[C@@H]1C)C4=O`, the GI50 in [1] is 1.71 µM; in test [2] it was 1.99 µM; in [3], 1.64 µM; in test [4] it was 1.77 µM; in test [5], 1.81 µM; in test [6], 2.44 µM. In addition, the GI50 in test [7] was 2.07 µM; in test [8], 1.7 µM; in [9], 1.85 µM; in test [10], 1.83 µM. The TGI in test [1] stood at 3.27 µM; in test [2], 4.21 µM; in [3] it was 3.02 µM; in test [4], 3.44 µM; in test [5], 3.28 µM; in test [6], 5.1 µM. The TGI in test [7] is 4.08 µM; in test [8] it was 3.35 µM; in test [9], 6.07 µM; in test [10], 3.61 µM.

As to `O=S(=O)(Nc1ccccc1Cl)c1ccc(-c2cnc(C3CC3)o2)cc1`, the GI50 in test [1] is 0.642 µM; in test [2] it was 1.22 µM; in [3] it was 0.453 µM; in test [4], 0.397 µM; in test [5], 1.23 µM; in [6], 1.78 µM. Further, the GI50 was 2.54 µM in test [7], 1.92 µM in test [8], 0.71 µM in test [9] and 0.312 µM in test [10]. The TGI in test [1] was more than 100 µM; in test [2], more than 100 µM; in [3], 15.9 µM; in test [4], 15.6 µM; in test [5], more than 67.7 µM; in test [6] it was more than 100 µM. Besides, the TGI in [7] was 33.3 µM; in test [8], 84.9 µM; in [9], more than 63.6 µM; in test [10], more than 100 µM.

As to `CCC[CH2][Sn]([CH2]CCC)([CH2]CCC)[O]c1ccc(Cl)cc1Cl`, the GI50 in test [1] is 0.175 µM; in [2], 0.163 µM; in test [3], 0.138 µM; in test [4], 0.0977 µM; in test [5] it was 0.137 µM; in [6] it was 0.109 µM. For the same compound, the GI50 in test [7] is 0.0949 µM; in [8], 0.122 µM; in [9], 0.165 µM; in [10] it was 0.131 µM. Also, the TGI in [1] came out at 0.344 µM; in test [2], 0.354 µM; in [3], 0.27 µM; in [4], 0.25 µM; in test [5], 0.276 µM; in [6], 0.321 µM. Also, the TGI was 0.226 µM in test [7], 0.284 µM in test [8], 2.77 µM in test [9] and 0.279 µM in test [10].

As to `CN[C@H]1C=C[C@@H]2/C=C(C)/C=C/[C@@H](C)[C@H]([C@H](C)[C@H](O)[C@@H](C)NC(C)=O)OC(=O)/C=C/C=C(C)\C=C\[C@]2(C)C1`, the GI50 in [1] is 0.0795 µM and 0.0718 µM; in test [2] it was 0.00922 µM; in [3] it was 0.0049 µM; in [4], 0.0107 µM; in test [5], less than 0.001 µM; in test [6], 0.0687 µM and 0.0376 µM. The GI50 in test [7] was 5.5 µM; in test [8], 0.0049 µM; in [9], 16.6 µM; in [10], 0.00655 µM. The TGI in test [1] is more than 49 µM; in test [2] it was more than 49 µM; in test [3], 0.552 µM; in test [4], more than 49 µM; in test [6], more than 49 µM; in test [7], more than 49 µM. The TGI was 9.97 µM in test [8], more than 49 µM in test [9] and more than 49 µM in [10].
